From patent US20220160812A1, “A PHARMACEUTICALLY ACTIVE SUBSTANCE” (Cytopharma GmbH, priority 2019, published 2022)

Test system: A375 melanoma cells
Experiment: subG1 cell cycle FACS apoptosis assay, A375 melanoma cells
Type: cell-based, human
Conditions: A375, Protocol A
Experimental: To transfer adherent cells (A375 and BxPC-3 cells) after culture, cells are washed twice with PBS. To detach the cells, the enzyme biotase is used according to the manufacturer's instructions. For this purpose, after washing with PBS, the cells are mixed with biotase (5 ml of biotase solution per 75 cm^2 surface of the cell culture bottles) and incubated for 5 min at 37 degrees Celsius, and the biotase is separated by centrifugation. Cells cultivated in suspension (MEC-1 and lymphocytes) were transferred by dilution. The cells are suspended in culture medium and counted, each time 1.5×10^5 cells/cm^2 are seeded in 48-well plates and cultured for between 1.5 and 24 hours at 37 degrees Celsius, 5% CO2. Peptides are pre-diluted from stock solution with culture medium and 200 μl of peptide solution added so that final concentrations of 30 to 500 μM peptide are present in at most 1% (v/v) DMSO. As control solutions, culture medium without peptide (DMSO-containing) in culture medium or etoposide solution is added. After incubating the cells for several hours, the cell supernatant is transferred to a FACS tube for each batch and, after washing the cells with PBS, the wash solution is added. Then the cells are incubated with 200 μl of biotase solution for 10 min, 37° C., the cells with the biotase are also transferred to the FACS tube and the cells are collected by centrifugation for 5 min. The cell pellet is suspended in 500 μl of serum-free culture medium, then 1.5 ml of cold 80% ethanol (ethanol/PBS-80/20, v/v, stored at −20° C.) is added, the FACS tubes sealed and stored at −20 degrees Celsius for 15 to 18 h. Thereafter, the cells are centrifuged for 5 minutes at 120 g, suspended after removal of the supernatant in 2 ml PBS and incubated at 37 degrees Celsius for 30 minutes. After re-centrifugation, the cells are suspended in 0.5 ml DAPI solution and incubated for 15 min at 20 degrees Celsius in the dark. Thereafter, the cells are stored dark for a maximum of four hours in an ice bath, followed by the FACS analysis.
The adherent cells (A375 and BxPC-3 cells and MDA-MB-231, respectively) are seeded 24 hours before induction in 6-well plates in culture medium. For this, the cells are washed with PBS, then incubated with trypsin/EDTA solution at 37 degrees Celsius and suspended in culture medium. The 6-well plates are loaded with 1×10^5 cells/cm^2 in culture medium and the cells incubated for 24 hours until induction with the peptides in the incubator. For induction, the peptides are diluted in fresh culture medium. As control solutions, culture medium without peptide (DMSO-containing) in culture medium or etoposide solution is added. The cells are washed with PBS. Thereafter the peptide solution in culture medium is added to the cells. After incubation in the incubator (37° C., 5% CO2) between 1.5 and 24 hours, the cell supernatant is transferred to 15 ml centrifuge tubes, the cells are washed with 0.75 ml PBS and then with 0.5 ml versene solution. Both washings are combined with the cell supernatant. The cells are then added with 0.5 ml of trypsin/EDTA solution and incubated at about 37° C. for at most 10 minutes until the cells detached. The cell suspension is combined with cell supernatant and washings and centrifuged at about 130 g for about 10 minutes. After removing the supernatant, the cells are suspended in 400 μl of cell culture medium (without serum) and mixed with 1.2 ml of 80% ethanol/20% PBS (v/v) and incubated for 1 to 7 days at −20° C. For analysis, the cells are centrifuged at 130 g for 10 min, suspended in 2 ml PBS, and centrifuged again for 5 min. The cells are suspended in 700 μl PI buffer and incubated for 10 min at 37° C. in the dark. Subsequently, the cells are stored dark for a maximum of four hours in an ice bath, then the FACS analysis is performed.
The proportion of cells which have died was determined by two methods, both rely on the analysis of cells by flow cytometry, often called FACS analysis. […]

Substance	apoptosis level (subG1), comparison in words (100 μM, FIG. 6)	apoptosis efficiency (subG1) in view of Peptide SEQ C1 (100 μM, about 24 hours, FIG. 4)	apoptosis level (subG1) (200 μM and above, incubation about 3 hours, FIG. 6)	apoptosis efficiency (subG1) in view of Peptide SEQ C1 (200 μM, about 24 hours, FIG. 4)	apoptosis efficiency (subG1), comparison in words (200 μM, incubation 1.5 h, 3 h and 6 h, FIG. 6)	apoptosis efficiency (subG1), comparison in words (300 μM, all incubation times (1.5, 3, 6, 24 h), FIG. 6)	apoptosis efficiency (subG1), comparison in words (any concentration (50, 100, 200 μM), about 24 hours, FIG. 4)	apoptosis efficiency (subG1), comparison in words (200 μM, incubation 24 h, FIG. 6)	apoptosis efficiency (subG1), comparison in words (200 μM, about 24 hours, FIG. 4)
k-s-q-t-v-q-k-w-m-v-v-y-f-r-k [SEQID No 36]	slightly improved apoptosis level in view of peptide SEQID NO 27	at least fivefold	high apoptosis level	at least tenfold	improvement over Peptides SEQID NO 37 and SEQID NO 27	improvement with regard to all incubation times over Peptides SEQID NO 37 and SEQID NO 27	clear improvement over Peptides SEQID NO 37 and SEQID NO 29 at any concentration	–	–
s-q-t-v-q-k-w-m-v-v-y-f-r-k [SEQID No 37]	slightly improved apoptosis level in view of peptide SEQID NO 27	–	–	–	–	–	–	best results	–
k-s-q-t-v-k-k-w-m-v-v-y-f-r-k [SEQID No 29]	–	–	–	–	–	–	–	–	higher efficiency at 200 μM in view of Peptide SEQID No 37
